Earlier results as cited in US20250066504A1, “USE OF OREGOVOMAB AND PARP INHIBITORS FOR TREATMENT OF OVARIAN CANCER” (CANARIABIO INC., priority 2022, published 2025).
Several values for one entry are separate records, joined by “and”; a condition that tells them apart may be missing. Equal values may be shown once. Read-outs that look alike come from different tables or passages of the source.

Key:
[1] = human, in vivo
[2] = system: platinum-sensitive recurrent ovarian cancer; conditions: added to standard chemotherapy, followed by maintenance until progression
[3] = system: platinum resistant disease
[4] = system: platinum-sensitive disease; conditions: added to gemcitabine and carboplatin
[5] = system: advanced epithelial ovarian, adnexal, or primary peritoneal cancer, Stage III and Stage IV; conditions: K-M method
CA-125-expressing tumors = conditions: mouse, in vivo
[6] = 100 times the estimated human dose equivalent (2 mg/60 kg body weight)
[7] = normal rabbits
tumor = conditions: tumor-bearing mice
[8] = 100 times the estimated human dose equivalent (2 mg/60 kg body weight); remark: listed apart in the source
[9] = human, in vivo; remark: listed apart in the source
[10] = system: adenocarcinomas expressing the CA125 antigen
[11] = normal rats
[12] = system: normal human organs and tissues
[13] = system: immune suppressive malignancy; conditions: immune initiation alone
[14] = system: platinum-sensitive, recurrent ovarian cancer
[15] = system: BRCA2-mutant pancreatic cancer (CAPAN-1)
[16] = for grade 3/4 thrombocytopenia rate in the first 30 days: classification tree model
[17] = not given; remark: listed apart in the source
[18] = system: patient-derived Ewing sarcoma; conditions: mouse, in vivo
[19] = system: BRCA1-mutant breast cancer (MDA-MB-436)
[20] = 300 mg dose
BRCA1-mutant xenograft = conditions: dosed orally
P-glycoprotein (P-gp) = P-glycoprotein (P-gp) (Homo sapiens, UniProt P08183)
[21] = in vivo
[22] = system: patient-derived ovarian and breast cancer xenograft; conditions: in vivo
[23] = HRDpos (Within non-gBRCAmut Cohort)
[24] = Non-gBRCAmut Cohort (Regardless of HRD Status)
[25] = lower baseline platelets (<180×10^9/L)

Chain of P-glycoprotein (P-gp) (P08183 whole entry): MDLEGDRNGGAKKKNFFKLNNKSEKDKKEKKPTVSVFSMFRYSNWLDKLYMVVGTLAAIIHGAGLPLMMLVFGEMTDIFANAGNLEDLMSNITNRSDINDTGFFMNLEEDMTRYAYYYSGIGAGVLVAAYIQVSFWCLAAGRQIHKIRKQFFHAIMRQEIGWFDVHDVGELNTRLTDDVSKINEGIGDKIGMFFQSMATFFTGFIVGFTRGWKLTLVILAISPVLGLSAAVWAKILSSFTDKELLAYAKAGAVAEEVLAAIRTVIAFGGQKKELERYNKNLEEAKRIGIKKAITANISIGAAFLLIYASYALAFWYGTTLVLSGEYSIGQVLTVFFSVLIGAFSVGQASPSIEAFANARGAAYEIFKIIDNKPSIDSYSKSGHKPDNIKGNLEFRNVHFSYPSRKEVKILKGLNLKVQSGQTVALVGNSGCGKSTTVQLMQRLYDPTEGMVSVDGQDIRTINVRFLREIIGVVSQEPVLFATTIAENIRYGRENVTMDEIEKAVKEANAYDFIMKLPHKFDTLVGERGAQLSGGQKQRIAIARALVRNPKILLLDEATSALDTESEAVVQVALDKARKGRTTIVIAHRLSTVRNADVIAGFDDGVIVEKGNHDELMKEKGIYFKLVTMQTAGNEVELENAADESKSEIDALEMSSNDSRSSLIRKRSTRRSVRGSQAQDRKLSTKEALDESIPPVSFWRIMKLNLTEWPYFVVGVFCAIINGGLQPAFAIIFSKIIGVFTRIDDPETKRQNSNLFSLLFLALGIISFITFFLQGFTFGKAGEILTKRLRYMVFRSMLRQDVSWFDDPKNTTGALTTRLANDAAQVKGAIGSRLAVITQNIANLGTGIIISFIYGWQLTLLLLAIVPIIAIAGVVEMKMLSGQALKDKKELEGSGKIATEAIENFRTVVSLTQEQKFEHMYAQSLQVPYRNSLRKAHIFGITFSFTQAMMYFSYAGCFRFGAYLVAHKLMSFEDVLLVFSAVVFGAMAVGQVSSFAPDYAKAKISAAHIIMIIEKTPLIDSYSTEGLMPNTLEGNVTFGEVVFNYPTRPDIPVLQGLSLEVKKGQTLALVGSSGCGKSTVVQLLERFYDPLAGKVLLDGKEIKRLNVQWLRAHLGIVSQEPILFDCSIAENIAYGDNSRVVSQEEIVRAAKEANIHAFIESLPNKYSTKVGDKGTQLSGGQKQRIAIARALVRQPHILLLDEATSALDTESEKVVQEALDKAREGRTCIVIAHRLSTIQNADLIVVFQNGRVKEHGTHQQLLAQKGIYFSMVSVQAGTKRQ

Molecule: O=C(c1cc(Cc2n[nH]c(=O)c3ccccc23)ccc1F)N1CCN(C(=O)C2CC2)CC1 [olaparib]
- myelodysplastic syndrome (MDS) and acute myeloid leukemia (AML) [1]: have been observed

Molecule: bevacizumab
- median overall survival [2]: improved the median overall survival
- PFS ([3]; added to pegylated liposomal doxorubicin, weekly paclitaxel, or topotecan): improved PFS
- OS ([3]; added to single agent chemotherapy): not OS
- OS [4]: no difference in OS
- PFS [4]: improved PFS

Molecule: paclitaxel/carboplatin
- OS (median) [5]: 43.2 months
- PFS (median) [5]: 12.2 months
- time to clinical progression (TTCP) (median) [5]: 13.6 months

Molecule: Oregovomab
- ascites production (CA-125-expressing tumors): inhibited ascites production
- survival (CA-125-expressing tumors): long-term survival
- tumor size (CA-125-expressing tumors): reduced tumor size
- acute toxicity [6]: lack of significant acute toxicity
- humoral response [7]: strong humoral response
- cellular responses (tumor): evident
- humoral response (tumor): strong humoral response
- survival (tumor; compared to controls): increase in survival
- tumor size (tumor; compared to controls): decrease in tumor size
- affinity of binding to CA125 (CA125): 1.16e+10 M⁻¹
- binding force to cancer antigen 125 (CA-125) (CA125; during blood circulation): less than nano units
- acute toxicity [8]: lack of significant acute toxicity
- apparent terminal half-life (t1/2z) [9]: around 33 hours
- clearance on repeat administration [9]: accelerated
- dose of the radiotracer eliminated in the urine [9]: less than 50%
- mean residence time (MRT) [9]: about 45 hours
- plasma clearance [9]: around 110 mL/minute
- binding to adenocarcinomas expressing the CA125 antigen [10]: selective binding
- humoral response [11]: strong humoral response
- cross-reactivity with selected normal human organs and tissues [12]: does not show any significant cross-reactivity
- effect on the clinical course of disease [13]: insufficient to alter the clinical course of disease

Molecule: NC(=O)c1cccc2cn(-c3ccc([C@@H]4CCCNC4)cc3)nc12 [Niraparib]
- HR (niraparib:placebo) [14, 23]: 0.38
- Median PFS [14, 23]: 12.9 months
- HR (niraparib:placebo) [14, 24]: 0.45
- Median PFS [14, 24]: 9.3 months
- Median PFS ([14]; gBRCAmut Cohort, 300 mg QD): 21.0 months
- HR (niraparib:placebo) ([14]; gBRCAmut Cohort, stratified Cox proportional hazards model): 0.27
- efficacy at the reduced dose ([14]; retrospective analyses from NOVA): did not compromise efficacy
- HR ([14]; subjects with HRDneg tumors): 0.58
- Median PFS ([14]; subjects with HRDneg tumors): 6.9 months
- correlation between exposure level (plasma concentration) and QTc changes (ΔQTcF) (in vivo): no correlation
- clinically significant abnormal ECG changes, including QTc interval prolongation, attributed to niraparib (n=26): no reports
- QT interval (therapeutic dose): did not prolong
- antitumor activity [15]: strong antitumor activity
- grade 3/4 thrombocytopenia rate in the first 30 days ([16]; baseline body weight <77 kg or baseline platelet count <150,000 μL): approximately 30%
- grade 3/4 thrombocytopenia rate in the first 30 days ([16]; baseline body weight <77 kg or baseline platelet count <150,000 μL, listed as niraparib): 35.4% and ~30%
- incidence of grade 3 or 4 thrombocytopenia in the first 30 days ([16]; baseline body weight ≥77 kg): 14%
- incidence of grade 3 or 4 thrombocytopenia in the first 30 days ([16]; body weight <58 kg): 43%
- subjects with a dose reduction ([16]; body weight <58 kg): approximately 80%
- grade 3/4 thrombocytopenia rate in the first 30 days ([16]; body weight >77 kg and platelet count >150,000 μL): 11.5%
- treatment discontinuations ([16]; highest quartile (≥77 kg)): 10%
- frequency of thrombocytopenia Grade ≥1 [16, 25]: 76%
- frequency of thrombocytopenia Grade ≥3 [16, 25]: 45%
- treatment discontinuations ([16]; lower body weight (<58 kg quartile)): 24%
- subjects with a dose reduction ([16]; weight greater than or equal to 77 kg): 59%
- incidence of MDS/AML ([17]; 5 of 367): 1.4%
- anemia (all grades) ([17]; human, in vivo): 49%
- constipation (all grades) ([17]; human, in vivo): 40%
- decreased platelet count (all grades) ([17]; human, in vivo): 20%
- fatigue (all grades) ([17]; human, in vivo): 46%
- nausea (all grades) ([17]; human, in vivo): 74%
- neutropenia (all grades) ([17]; human, in vivo): 18%
- on-treatment deaths ([17]; human, in vivo): no on-treatment deaths
- subjects with at least 1 treatment-emergent adverse event (TEAE) ([17]; human, in vivo): All 367
- thrombocytopenia (all grades) ([17]; human, in vivo): 46%
- vomiting (all grades) ([17]; human, in vivo): 34%
- TEAEs leading to dose reduction ([17]; overall safety population): 69%
- TEAEs leading to treatment discontinuation ([17]; overall safety population): 15%
- TEAEs leading to treatment interruption ([17]; overall safety population): 67%
- incidence of Grade 3 or 4 TEAEs ([17]; overall safety population): 74%
- incidence of serious adverse events (SAEs) ([17]; overall safety population): 30%
- antitumor activity [18]: strong antitumor activity
- antitumor activity [19]: strong antitumor activity
- bone marrow suppression (neutropenia, thrombocytopenia, and anemia), subjects [20]: 20-40%
- hypertension/hypertensive crisis, subjects ([20]; treatment for up to two years): 9%
- reduction in tumor weight compared with control (BRCA1-mutant xenograft): > 90%
- tumor response (BRCA1-mutant xenograft): tumor regression
- synthetic lethality (cells with HRD; cells with HRD): induce synthetic lethality
- effect on normal DNA repair mechanisms (cells with HRD; pre-clinical models): inhibit normal DNA repair mechanisms
- substrate for P-gp (P-glycoprotein (P-gp)): relatively poor substrate
- ORR (ovarian cancer; 98 subjects in the HRD-positive cohort, RECIST v1.1, 300 mg once daily): 24%
- Estimated median DOR (ovarian cancer; HRD-positive cohort): 8.3 months
- new safety signals (ovarian cancer; in vivo): No new safety signals
- subjects achieving an overall response (ovarian cancer; primary efficacy population (13 of 47)): 28%
- ORR (ovarian cancer; tBRCAm ovarian cancer, platinum-refractory disease (3/16)): 19%
- ORR (ovarian cancer; tBRCAm ovarian cancer, platinum-resistant disease (6/21)): 29%
- ORR (ovarian cancer; tBRCAm ovarian cancer, platinum-sensitive disease (7/18)): 39%
- effect of food on absorption [21]: does not significantly affect
- response in patient-derived xenograft models [22]: demonstrated response in both BRCAmut and BRCA wild-type tumors
